Assay results from patent US20250195522A1, “TRANSDERMAL DOSAGE FORM, FOR PROMOTING LOCAL BLOOD FLOW, OF DUAL-ACTING PDE5 INHIBITOR/ORGANIC NITRATE ESTER” (UIF (University Industry Foundation), Yonsei University, priority 2022, published 2025).
Entries after “also recorded” stand apart in the source; their conditions may differ.

Key:
[1] = test system: C57BL/6 mice with hair follicles in the telogen phase; assay: Hair growth in hair-removed C57BL/6 mice, evaluated on Day 21 (visual/Image J, H&E); assay type: in vivo; details: for skin area converted to black (anagen phase) with respect to the total hair-removed skin area / skin area with actual hair growth as a percentage of the total hair removal skin area: 50 μL
Procedure: 7-week-old C57BL/6 mice (Orient Bio, Korea) with hair follicles in the telogen phase were purchased and the experiment was performed. The experiment was conducted using 4 mice each for 6 experimental groups of a vehicle-applied control group (topical control), a Minoxidil-applied positive control group (topical Minoxidil), an Cp 1-applied group (topical Cp 1), a candlelit-shaped microneedle control group (CMN control), an Cp 1 microneedle administration group (Cp 1 conv-DMN) and an Cp 1 candlelit-shaped microneedle administration group (Cp 1 CMN).
In the topical formulation, polyethylene glycol 400 (PEG 400; Sigma-Aldrich, St. Louis, MO, USA) and ethanol (99.5°; Sigma-Aldrich) were mixed in 50 μL solution with a ratio of 7:3 (v/v) containing 2% (w/v) of minoxidil (Sigma-Aldrich) and 0.002% (w/v) of Cp-1 (2 μg per day). The topical formulation groups' 50 μL solutions were administered twice a day.
The experiment was started in a pink skin condition by removing the hair on the back of the mice, and the drug application was carried out twice a day for 21 days, and when injected using a microneedle, it was injected once every 2 days and was not injected on last Day 21.
On Day 21 of the administration, the area in which the color of the back of the mice was changed to black, that is, the area converted to the anagen phase among the shaved areas was analyzed with the naked eye and the Image J software (National Institutes of Health, Bethesda, MD, USA), which is an image analysis program.
On Day 21 of the administration, the ratio of actual hair growth on the back of the mice was analyzed with the naked eye and the Image J software (National Institutes of Health, Bethesda, MD, USA), which is an image analysis program.
On Day 21 of the administration, the distribution rate by hair growth cycle in mice was compared.

β-catenin = assay: Immunohistochemical staining of mouse back skin, β-catenin; assay type: in vivo, mice; details: Day 21
Excerpt: (§1) The development of skin tissue, which becomes the surrounding support for hair growth, plays an important role in hair growth. As such, in order to compare the degree of the development of skin tissue in 6 experimental groups of the vehicle-applied control group (topical control), the Minoxidil-applied positive control group (topical minoxidil), the Cp 1 application group (topical Cp 1), the candlelit-shaped microneedle control group (CMN control), the Cp 1 microneedle administration group (Cp 1 conv-DMN) and the Cp 1 candlelit-shaped microneedle administration group (Cp 1 CMN), β-catenin and PCNA, which are biomarkers indicating skin tissue proliferation, the vascular endothelial cell marker MECA 32 showing the development of the vascular network around the mouse hair follicle, and the dermal papilla cell (DP) marker Versican (VCAN), which is generated in the hair follicle anagen phase showing the hair follicle anagen phase inducing effect, were observed by immunohistochemical staining. To this end, as in Example 1-2, the back tissue of the mice was collected on Day 21, then the frozen tissue was sectioned, and the fluorescent material-conjugated antibody was treated on the tissue, and then the fluorescence images were analyzed. The antibodies used were β-catenin (BD Biosciences, San Jose, CA, USA), PCNA (LSBIO, Seattle, WA, USA), VCAN (LSBIO, Seattle, WA, USA) and MECA-32 (Novus Biologicals, CA, USA), respectively.

MECA 32 = assay: Immunohistochemical staining of mouse back skin, vascular endothelial cell marker MECA 32; assay type: in vivo, mice; details: Day 21
Excerpt: as §1

Versican (VCAN) = assay: Immunohistochemical staining of mouse back skin, dermal papilla cell marker Versican (VCAN); assay type: in vivo, mice; details: Day 21
Excerpt: as §1

[2] = topical application twice a day
[3] = topical application twice a day, 2% (w/v) minoxidil or 0.002% (w/v) Cp 1
[4] = general microneedle or candlelit-shaped microneedle

CCCOc1ccc(S(=O)(=O)N2CCC(CCO[N+](=O)[O-])(CCO[N+](=O)[O-])CC2)cc1-c1nc2c(CCC)cn(CC)c2c(=O)[nH]1 [Cp 1, (1-((3-(5-ethyl-4-oxo-7-propyl-4,5-dihydro-3H-pyrrolo[3,2-d]pyrimidin-2-yl)-4-propoxyphenyl)sulfonyl)piperidine-4,4-diyl)bis(ethane-2,1-diyl) dinitrate]
skin thickness and hair thickness ([1]; administered using microneedles, especially candlelit-shaped microneedles): more significantly improved skin thickening effect and hair thickness improvement effect | hair growth effect and skin tissue development (visual observation, H&E) [1, 2]: increased skin thicknesses along with the hair growth effect; also recorded: more effective than Minoxidil treatment | skin area converted to black (anagen phase) with respect to the total hair-removed skin area [1, 3]: 92.1±3.0% | skin area with actual hair growth as a percentage of the total hair removal skin area [1, 3]: 61.0±14.0% | skin thickness and hair thickness ([1]; topical application, compared to topical Minoxidil): more improved skin thickening effect and hair thickness improvement effect | β-catenin expression (β-catenin; Cp 1 applied, compared with Minoxidil applied): higher | β-catenin expression (β-catenin; administered using a candlelit-shaped microneedle): highest β-catenin expression effect | β-catenin expression (β-catenin; administered with a microneedle, compared with Minoxidil applied): higher | expression level of MECA 32 (rank order of groups) (MECA 32; [4]): increased in the order of Minoxidil application. Cp 1 application, Cp 1 administration using a general microneedle and M-19 administration using a candlelit-shaped microneedle | expression level of MECA 32 (rank order of groups) (MECA 32; topical application): increased in the order of Minoxidil application. Cp 1 application, Cp 1 administration using a general microneedle and M-19 administration using a candlelit-shaped microneedle | expression level of VCAN (rank order of groups) (Versican (VCAN); [4]): increased in the order of Minoxidil application, Cp 1 application, Cp 1 administration using a general microneedle and M-19 administration using a candlelit-shaped microneedle | expression level of VCAN (rank order of groups) (Versican (VCAN); topical application): increased in the order of Minoxidil application, Cp 1 application, Cp 1 administration using a general microneedle and M-19 administration using a candlelit-shaped microneedle

Nc1cc(N2CCCCC2)nc(N)[n+]1[O-] [Minoxidil, 2,4-diamino-6-piperidinopyrimidine-3-oxide, reference compound]
hair growth effect and skin tissue development (visual observation, H&E) [1, 2]: increased skin thicknesses along with the hair growth effect | hair follicles converted to the anagen phase (distribution rate by hair growth cycle, H&E) [1, 3]: 52.5±1.3% | skin area converted to black (anagen phase) with respect to the total hair-removed skin area [1, 3]: 65.3±22.3% | skin area with actual hair growth as a percentage of the total hair removal skin area [1, 3]: 38.4±17.1% | expression level of MECA 32 (rank order of groups) (MECA 32; topical application): increased in the order of Minoxidil application. Cp 1 application, Cp 1 administration using a general microneedle and M-19 administration using a candlelit-shaped microneedle | expression level of VCAN (rank order of groups) (Versican (VCAN); topical application): increased in the order of Minoxidil application, Cp 1 application, Cp 1 administration using a general microneedle and M-19 administration using a candlelit-shaped microneedle
